Where no end group is shown, it is not given here.
Legend:
[1] = test system: post-ERCP pancreatitis in patients undergoing ERCP; experiment: Randomized, double-blind, placebo controlled study in ERCP patients: incidence and severity of post-ERCP pancreatitis; format: in vivo, human
Source text: Pancreatitis is the most common medically significant complication following Endoscopic Retrograde Cholangio-Pancreatography ([…]) procedures. The symptoms and pathophysiology of post-ERCP pancreatitis and acute pancreatitis are identical, and patients at risk for postERCP pancreatitis or suffering early signs of the condition provide good data for evaluation of therapies for acute pancreatitis. An evaluation of the clinical efficacy of dosages of secretin to treat or prevent the onset of pancreatitis in patients undergoing ERCP is described below.
A total of 979 ERCP patients were randomized, received study drug and were evaluable for efficacy. The demographic profiles of the patients who were randomized and received treatment with study drug by treatment group are summarized in Table 1.
The primary efficacy variable was the overall incidence of post-ERCP pancreatitis.
The difference in the incidence of post-ERCP pancreatitis between the two treatment groups in favor of the sPS treated patients was highly significant. The p-value of 0.0161 was sufficient to allow the study to be discontinued on the basis of the planned interim analysis of approximately 1,000 evaluable patients. The severity of the cases of post-ERCP pancreatitis, which did occur in each treatment group is depicted in Table 4 below.
The frequency of post-ERCP pancreatitis was evaluated in numerous patient sub-populations defined by the types of procedures performed during the ERCP.

[2] = test system: patients undergoing ERCP; experiment: Return to pre-ERCP activity levels and return to work in ERCP patients; format: in vivo, human
Source text: Additional secondary efficacy variables assessed were return to baseline (pre-ERCP levels of activity) and the time in days to return of pre-ERCP activity levels. There was a small difference in the percentage of patients reporting return to baseline activity within the follow-up period (2 to 4 days post-ERCP) favoring the placebo group (p=0.0230) (49.78% vs. 42.09%). Interims of the mean number of days required to achieve pre-ERCP activity levels, was 0.6 (±1.0) for the sPS group and 0.7 (±0.9) for the placebo group. An attempt was made to obtain information on return to work. Relatively few data points were able to be collected, however, because a large percentage of patients were not working pre-ERCP (retired, too ill, etc.) among the 185 patients (95 in the sPS group and 90 in the placebo group) providing relevant responses for this variable, 46.32% of sPS patients and 50.00% of placebo patients reported returning to work within the follow-up period.

[3] = number of cases (% of 44 pancreatitis cases), N = 488/44

Substance: synthetic porcine secretin (HSDGTFTSELSRLRDSARLQRLLQGLV; not fully specified; ends and bridges not checked; UniProt P63298 33-59, looked up) [SPS, Study drug; abbreviation not defined]
- Post-ERCP Pancreatitis Severity Rating (%): Severe [1, 3]: 1 (2.27) %
- Post-ERCP Pancreatitis Severity Rating (%): Unknown [1, 3]: 7 (15.91) %
- Post-ERCP Pancreatitis Severity Rating (%): Total ([1]; number of cases (% of 44 pancreatitis cases), N = 488/44, overall p 0.6278): 44 (100.0) %
- Post-ERCP Pancreatitis Severity Rating (%): Moderate ([1]; number of cases (% of 44 pancreatitis cases), N = 488/44, p 0.117): 9 (20.45) %
- Post-ERCP Pancreatitis Severity Rating (%): Minimal ([1]; number of cases (% of 44 pancreatitis cases), N = 488/44, p 0.289): 13 (29.55) %
- Post-ERCP Pancreatitis Severity Rating (%): Mild ([1]; number of cases (% of 44 pancreatitis cases), N = 488/44, p 0.590): 14 (31.82) %
- Overall Incidence of Post-ERCP Pancreatitis, No (%) ([1]; number of patients (%), N = 488): 444 (90.98) %
- Overall Incidence of Post-ERCP Pancreatitis, Yes (%) ([1]; number of patients (%), N = 488, p 0.0161 vs placebo, Fisher Exact Test): 44 (9.02) %
- Incidence of Post-ERCP Pancreatitis, No (%) ([1]; sub-population Cannulation of CBD, N = 361): 334 (92.52) %
- Incidence of Post-ERCP Pancreatitis, Yes (%) ([1]; sub-population Cannulation of CBD, N = 361, p 0.0010): 27 (7.48) %
- Incidence of Post-ERCP Pancreatitis, No (%) ([1]; sub-population Cannulation of Pancreatic Duct, N = 220): 190 (86.36) %
- Incidence of Post-ERCP Pancreatitis, Yes (%) ([1]; sub-population Cannulation of Pancreatic Duct, N = 220, p 0.1237): 30 (13.64) %
- Incidence of Post-ERCP Pancreatitis, No (%) ([1]; sub-population Manometry of CBD, N = 19): 15 (78.95) %
- Incidence of Post-ERCP Pancreatitis, Yes (%) ([1]; sub-population Manometry of CBD, N = 19, p 0.0819): 4 (21.05) %
- Incidence of Post-ERCP Pancreatitis, Yes (%) ([1]; sub-population Manometry of CBD, N = 19, p 0.0819, listed as sPS): 21.05%
- Incidence of Post-ERCP Pancreatitis, No (%) ([1]; sub-population Manometry of Pancreatic Duct, N = 11): 6 (54.58) %
- Incidence of Post-ERCP Pancreatitis, Yes (%) ([1]; sub-population Manometry of Pancreatic Duct, N = 11, p 0.3665): 5 (45.45) %
- Incidence of Post-ERCP Pancreatitis, No (%) ([1]; sub-population Sphincterotomy of CBD, N = 140): 133 (95.00) %
- Incidence of Post-ERCP Pancreatitis, Yes (%) ([1]; sub-population Sphincterotomy of CBD, N = 140, p 0.0001): 7 (5.00) %
- Incidence of Post-ERCP Pancreatitis, No (%) ([1]; sub-population Sphincterotomy of Pancreatic Duct, N = 26): 14 (57.85) %
- Incidence of Post-ERCP Pancreatitis, Yes (%) ([1]; sub-population Sphincterotomy of Pancreatic Duct, N = 26, p 0.1666): 12 (46.15) %
- Incidence of Post-ERCP Pancreatitis, No (%) ([1]; sub-population Stent Insertion into CBD, N = 108): 105 (97.22) %
- Incidence of Post-ERCP Pancreatitis, Yes (%) ([1]; sub-population Stent Insertion into CBD, N = 108, p 0.0856): 3 (2.78) %
- Incidence of Post-ERCP Pancreatitis, Yes (%) ([1]; sub-population Stent Insertion into CBD, N = 108, p 0.0856, listed as sPS): 2.78%
- Incidence of Post-ERCP Pancreatitis, No (%) ([1]; sub-population Stent Insertion into Pancreatic Duct, N = 23): 18 (78.26) %
- Incidence of Post-ERCP Pancreatitis, Yes (%) ([1]; sub-population Stent Insertion into Pancreatic Duct, N = 23, p 1.0000): 5 (21.74) %
- Incidence of Post-ERCP Pancreatitis, Yes (%) ([1]; sub-population Stent Insertion into Pancreatic Duct, N = 23, p 1.0000, listed as sPS): 21.7%
- Incidence of Post-ERCP Pancreatitis, No (%) ([1]; sub-population Stent Removal from CBD, N = 58): 57 (98.28) %
- Incidence of Post-ERCP Pancreatitis, Yes (%) ([1]; sub-population Stent Removal from CBD, N = 58, p 0.6185): 1 (1.72) %
- Incidence of Post-ERCP Pancreatitis, No (%) ([1]; sub-population Stent Removal from Pancreatic Duct, N = 17): 15 (88.24) %
- Incidence of Post-ERCP Pancreatitis, Yes (%) ([1]; sub-population Stent Removal from Pancreatic Duct, N = 17, p 1.0000): 2 (11.76) %
- Incidence of Post-ERCP Pancreatitis, No (%) ([1]; sub-population Stone Extraction (Balloon), N = 55): 51 (92.73) %
- Incidence of Post-ERCP Pancreatitis, Yes (%) ([1]; sub-population Stone Extraction (Balloon), N = 55, p 1.0000): 4 (7.27) %
- Incidence of Post-ERCP Pancreatitis, No (%) ([1]; sub-population Stone Extraction (Basket), N = 35): 34 (97.14) %
- Incidence of Post-ERCP Pancreatitis, Yes (%) ([1]; sub-population Stone Extraction (Basket), N = 35, p 0.2298): 1 (2.86) %
- mean number of days required to achieve pre-ERCP activity levels ([2]; mean (±SD)): 0.6 (±1.0) days
- patients reporting returning to work ([2]; within the follow-up period, 95 patients in the sPS group, not significant): 46.32%

Reference: patent publication US7381698B2, “Methods for treatment of acute pancreatitis” (ChiRhoClin, Inc., priority 2003, dated 2008)
